Laboratory results taken from ChEMBL document CHEMBL3769343, “Spiromastilactones: A new class of influenza virus inhibitors from deep-sea fungus” (Eur J Med Chem, 2016).
pEC50: −log10 of the molar value.

Tests used:
Type in all cases: functional, organism-based
Influenza A virus [1] = assay: Antiviral activity against oseltamivir-resistant influenza A virus LN/1109 (H1N1) infected in dog MDCK cells assessed as inhibition of virus induced cytopathic effect after 40 hrs by Cell-Titer-Glo assay
Influenza A virus [2] = assay: Antiviral activity against amantadine-resistant influenza A virus JX/312 (H3N2) infected in dog MDCK cells assessed as inhibition of virus induced cytopathic effect after 40 hrs by Cell-Titer-Glo assay
Influenza A virus [3] = assay: Antiviral activity against amantadine-resistant influenza A virus HN/1222 (H3N2) infected in dog MDCK cells assessed as inhibition of virus induced cytopathic effect after 40 hrs by Cell-Titer-Glo assay

Compound	pEC50 (Influenza A virus [1])	pEC50 (Influenza A virus [2])	pEC50 (Influenza A virus [3])
NC12CC3CC(CC(C3)C1)C2 [AMANTADINE]	< 3.70	5.37	< 4.69
CCOC(=O)C1=C[C@@H](OC(CC)CC)[C@H](NC(C)=O)[C@@H](N)C1 [OSELTAMIVIR]	6.09	5.01	< 3.70
NC(=O)c1ncn([C@@H]2O[C@H](CO)[C@@H](O)[C@H]2O)n1 [RIBAVIRIN]	5.98	5.84	5.45
CCCc1c(Cl)c(O)cc(OC)c1Oc1c(Cl)c(O)c(Cl)c2c1C(=O)O[C@@H]2CC	4.48	4.45	4.41
